Test results from patent US20050282743A1, “Molecular interactions in cells” (Arbor Vita Corporation, priority 2001, published 2005).
Ends that are not written are not given here. Peptide text beside a SMILES is read from it. * marks the point of attachment. Biotin = O=C1N[C@H]2[C@H](CS[C@H]2CCCCC(=O)*)N1

Experiments:
Test in all cases: G' assay (10 uM PL peptide), results of TABLE 7 and TABLE 12
Assay type in all cases: binding
[1] = biological target: T1, PDZ protein (GST-PDZ fusion) (Homo sapiens, UniProt Q96JH8); conditions: PDZ FLJ 10324, PDZ Domain 1
T1 construct: made in house; host or cells: E. coli (DH5alpha, BL21 or JM109)
T1 sequence (Q96JH8 1-1075): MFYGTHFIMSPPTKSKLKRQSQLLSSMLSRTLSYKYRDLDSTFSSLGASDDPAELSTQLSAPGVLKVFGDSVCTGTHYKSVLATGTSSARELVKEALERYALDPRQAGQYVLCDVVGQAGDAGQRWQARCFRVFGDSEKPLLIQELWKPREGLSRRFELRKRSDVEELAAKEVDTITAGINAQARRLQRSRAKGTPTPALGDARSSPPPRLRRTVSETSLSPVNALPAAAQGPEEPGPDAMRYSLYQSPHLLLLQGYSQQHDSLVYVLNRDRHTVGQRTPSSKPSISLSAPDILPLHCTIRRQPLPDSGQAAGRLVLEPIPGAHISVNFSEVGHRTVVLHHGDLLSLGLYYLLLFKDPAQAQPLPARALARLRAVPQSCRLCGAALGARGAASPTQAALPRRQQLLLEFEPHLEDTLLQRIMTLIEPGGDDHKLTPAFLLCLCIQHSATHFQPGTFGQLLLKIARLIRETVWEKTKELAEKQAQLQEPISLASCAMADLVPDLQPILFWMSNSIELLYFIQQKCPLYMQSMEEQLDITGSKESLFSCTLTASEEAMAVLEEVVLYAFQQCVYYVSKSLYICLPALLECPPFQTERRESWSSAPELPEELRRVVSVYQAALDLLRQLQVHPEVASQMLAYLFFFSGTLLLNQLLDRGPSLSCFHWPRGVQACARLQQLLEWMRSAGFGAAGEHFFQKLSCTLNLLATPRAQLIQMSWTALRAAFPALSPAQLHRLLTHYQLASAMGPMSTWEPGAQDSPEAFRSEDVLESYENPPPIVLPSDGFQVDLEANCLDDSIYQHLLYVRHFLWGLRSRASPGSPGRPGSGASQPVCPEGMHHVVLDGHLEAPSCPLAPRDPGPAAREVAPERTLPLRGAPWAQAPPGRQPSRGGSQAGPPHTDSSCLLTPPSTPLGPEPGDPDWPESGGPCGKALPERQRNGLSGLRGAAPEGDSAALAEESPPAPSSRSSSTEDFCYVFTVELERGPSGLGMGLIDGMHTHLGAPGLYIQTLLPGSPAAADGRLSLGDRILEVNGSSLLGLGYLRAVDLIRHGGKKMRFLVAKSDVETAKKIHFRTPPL
Procedure, shortened: (§1)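 Binding classes derive from A450 nm of bound biotin-tagged PL peptide. A score of 5 needs A450 above 4 in more than two repeats.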

[2] = biological target: T2, PDZ protein (GST-PDZ fusion) (Homo sapiens, UniProt O75970)
T2 construct: made in house; host or cells: E. coli (DH5alpha, BL21 or JM109)
Procedure, shortened: as §1

[3] = biological target: T3, PDZ protein (GST-PDZ fusion) (Homo sapiens, UniProt Q02410)
T3 construct: made in house; host or cells: E. coli (DH5alpha, BL21 or JM109)
T3 sequence (Q02410 1-837): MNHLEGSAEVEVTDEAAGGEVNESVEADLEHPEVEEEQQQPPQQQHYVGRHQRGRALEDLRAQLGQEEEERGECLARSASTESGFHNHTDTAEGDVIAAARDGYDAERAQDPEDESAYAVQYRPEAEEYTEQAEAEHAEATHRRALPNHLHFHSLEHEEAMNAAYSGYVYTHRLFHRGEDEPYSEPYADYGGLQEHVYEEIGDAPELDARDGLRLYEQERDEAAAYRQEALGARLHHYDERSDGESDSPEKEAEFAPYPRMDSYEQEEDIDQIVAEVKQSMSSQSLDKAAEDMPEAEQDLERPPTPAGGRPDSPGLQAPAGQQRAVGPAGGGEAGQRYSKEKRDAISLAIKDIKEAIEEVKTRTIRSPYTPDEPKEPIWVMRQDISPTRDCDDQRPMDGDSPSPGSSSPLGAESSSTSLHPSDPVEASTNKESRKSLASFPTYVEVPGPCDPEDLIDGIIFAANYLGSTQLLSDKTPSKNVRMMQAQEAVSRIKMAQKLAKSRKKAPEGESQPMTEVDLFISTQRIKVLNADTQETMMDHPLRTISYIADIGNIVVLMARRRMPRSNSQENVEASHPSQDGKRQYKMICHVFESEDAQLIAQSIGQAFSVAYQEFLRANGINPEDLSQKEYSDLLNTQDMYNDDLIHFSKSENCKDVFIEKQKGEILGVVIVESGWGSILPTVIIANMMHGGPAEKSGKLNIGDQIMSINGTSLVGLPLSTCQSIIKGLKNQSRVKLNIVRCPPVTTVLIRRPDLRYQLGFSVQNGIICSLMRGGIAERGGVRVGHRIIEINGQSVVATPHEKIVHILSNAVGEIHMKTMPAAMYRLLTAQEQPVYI
Procedure, shortened: as §1

T2 sequence (O75970 whole entry, the tested form may be a part): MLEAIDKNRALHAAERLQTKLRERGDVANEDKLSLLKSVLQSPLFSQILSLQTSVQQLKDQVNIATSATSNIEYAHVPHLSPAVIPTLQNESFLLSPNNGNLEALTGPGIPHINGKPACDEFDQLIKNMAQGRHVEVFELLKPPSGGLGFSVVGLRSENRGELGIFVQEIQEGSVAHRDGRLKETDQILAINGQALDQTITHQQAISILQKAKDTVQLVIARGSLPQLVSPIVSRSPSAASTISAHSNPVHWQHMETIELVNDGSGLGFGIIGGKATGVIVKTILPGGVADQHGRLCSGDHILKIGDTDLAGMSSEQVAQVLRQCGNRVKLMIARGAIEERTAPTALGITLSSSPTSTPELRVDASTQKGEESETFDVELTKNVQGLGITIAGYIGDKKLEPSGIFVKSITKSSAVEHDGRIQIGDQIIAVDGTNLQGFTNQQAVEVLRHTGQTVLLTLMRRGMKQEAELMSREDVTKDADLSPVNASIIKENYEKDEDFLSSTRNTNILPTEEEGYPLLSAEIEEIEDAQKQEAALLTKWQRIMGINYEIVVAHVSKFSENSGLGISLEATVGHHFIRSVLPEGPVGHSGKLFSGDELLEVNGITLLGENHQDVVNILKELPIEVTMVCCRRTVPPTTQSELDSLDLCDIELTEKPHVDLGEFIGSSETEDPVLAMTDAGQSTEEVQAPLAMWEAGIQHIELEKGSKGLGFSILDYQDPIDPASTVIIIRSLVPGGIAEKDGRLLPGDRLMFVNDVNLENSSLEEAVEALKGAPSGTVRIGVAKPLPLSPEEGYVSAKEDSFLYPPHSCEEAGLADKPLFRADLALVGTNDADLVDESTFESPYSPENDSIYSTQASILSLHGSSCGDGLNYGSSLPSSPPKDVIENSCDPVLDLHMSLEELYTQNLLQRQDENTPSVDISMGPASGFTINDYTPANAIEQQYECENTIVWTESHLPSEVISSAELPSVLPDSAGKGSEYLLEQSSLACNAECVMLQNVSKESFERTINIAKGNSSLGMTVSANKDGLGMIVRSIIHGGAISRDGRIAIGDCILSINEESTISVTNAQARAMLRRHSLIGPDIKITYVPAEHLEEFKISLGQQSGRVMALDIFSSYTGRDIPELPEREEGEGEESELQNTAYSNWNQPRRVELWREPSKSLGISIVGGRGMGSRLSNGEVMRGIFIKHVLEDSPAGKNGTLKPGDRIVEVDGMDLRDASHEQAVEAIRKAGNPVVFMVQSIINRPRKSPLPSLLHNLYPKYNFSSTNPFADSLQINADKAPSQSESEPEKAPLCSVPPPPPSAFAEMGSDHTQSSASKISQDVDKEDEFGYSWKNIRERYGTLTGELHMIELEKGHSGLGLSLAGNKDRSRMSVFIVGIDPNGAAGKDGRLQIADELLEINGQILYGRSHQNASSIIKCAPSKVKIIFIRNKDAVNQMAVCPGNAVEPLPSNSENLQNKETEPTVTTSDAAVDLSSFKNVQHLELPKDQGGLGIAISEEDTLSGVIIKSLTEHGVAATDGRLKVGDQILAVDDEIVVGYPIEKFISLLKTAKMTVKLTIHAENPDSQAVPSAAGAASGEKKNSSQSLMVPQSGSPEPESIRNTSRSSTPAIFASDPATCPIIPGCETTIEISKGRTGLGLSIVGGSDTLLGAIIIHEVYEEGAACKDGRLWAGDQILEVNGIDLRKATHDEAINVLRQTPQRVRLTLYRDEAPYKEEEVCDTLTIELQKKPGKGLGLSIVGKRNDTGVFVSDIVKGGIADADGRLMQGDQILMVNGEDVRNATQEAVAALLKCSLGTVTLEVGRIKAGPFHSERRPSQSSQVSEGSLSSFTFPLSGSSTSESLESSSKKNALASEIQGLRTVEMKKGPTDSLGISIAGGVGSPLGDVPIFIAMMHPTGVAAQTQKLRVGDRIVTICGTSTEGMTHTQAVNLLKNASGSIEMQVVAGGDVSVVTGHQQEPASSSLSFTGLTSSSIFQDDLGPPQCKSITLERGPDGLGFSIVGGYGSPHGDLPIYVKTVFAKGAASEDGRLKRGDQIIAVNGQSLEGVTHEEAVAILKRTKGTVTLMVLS

Compound | Classification [1] | Classification ([2]; PDZ MUPP-1, PDZ Domain 11) | Classification ([3]; PDZ Mint 1, PDZ Domain 1, 2) | Classification ([3]; PDZ Mint 1, PDZ Domain 2) | Classification ([2]; PDZ MUPP-1, PDZ Domain 10) | Classification ([2]; PDZ MUPP-1, PDZ Domain 13)
CC(C)C[C@H](NC(=O)[C@H](C)NC(=O)[C@H](CO)NC(=O)CNC(=O)[C@@H](NC(=O)CCCC[C@@H]1SC[C@@H]2NC(=O)N[C@@H]21)[C@@H](C)O)C(=O)N[C@@H](CCC(N)=O)C(=O)N[C@@H](C)C(=O)N[C@@H](Cc1c[nH]c2ccccc12)C(=O)N[C@@H](CCCNC(=N)N)C(=O)N[C@@H](Cc1c[nH]cn1)C(=O)N[C@H](C(=O)N[C@@H](CO)C(=O)N[C@@H](CCCNC(=N)N)C(=O)N[C@@H](CCC(N)=O)C(=O)N[C@@H](C)C(=O)N[C@H](C(=O)N[C@@H](CCC(=O)O)C(=O)N[C@@H](CO)C(=O)N[C@H](C(=O)N[C@H](C(=O)O)C(C)C)[C@@H](C)O)[C@@H](C)O)[C@@H](C)O [HPV E6 #66 (modified)] (Biotin-TGSALQAWRHTSRQATESTV-OH; C-terminus assumed) | 1 (A450 nm 0-1) | – | 1 (A450 nm 0-1) | 1 (A450 nm 0-1) | 1 (A450 nm 0-1) | 3 (A450 nm 2-3)
CC(C)C[C@H](NC(=O)CNC(=O)[C@@H](NC(=O)[C@H](CO)NC(=O)[C@H](CC(N)=O)NC(=O)[C@H](Cc1ccccc1)NC(=O)CNC(=O)[C@H](C)NC(=O)[C@H](C)NC(=O)[C@H](Cc1ccccc1)NC(=O)[C@@H](NC(=O)CCCC[C@@H]1SC[C@@H]2NC(=O)N[C@@H]21)[C@@H](C)O)[C@@H](C)O)C(=O)N1CCC[C@H]1C(=O)N[C@@H](Cc1c[nH]cn1)C(=O)N[C@@H](CO)C(=O)N[C@H](C(=O)N[C@H](C(=O)N[C@@H](CCCNC(=N)N)C(=O)N[C@H](C(=O)O)C(C)C)[C@@H](C)O)[C@@H](C)O [Neuroligin] (Biotin-TFAAGFNSTGLPHSTTRV-OH; C-terminus assumed) | 1 (A450 nm 0-1) | – | 1 (A450 nm 0-1) | – | – | –
CC(C)C[C@H](NC(=O)[C@H](C)NC(=O)[C@@H](NC(=O)[C@@H](NC(=O)[C@H](Cc1c[nH]cn1)NC(=O)[C@H](CC(C)C)NC(=O)CNC(=O)[C@H](CCC(N)=O)NC(=O)CNC(=O)CNC(=O)[C@H](C)NC(=O)[C@H](C)NC(=O)[C@H](CCCNC(=N)N)NC(=O)[C@H](C)NC(=O)[C@H](CO)NC(=O)[C@H](CC(=O)O)NC(=O)[C@H](CC(=O)O)NC(=O)[C@H](Cc1c[nH]c2ccccc12)NC(=O)[C@H](C)NC(=O)CCCC[C@@H]1SC[C@@H]2NC(=O)N[C@@H]21)C(C)C)[C@@H](C)O)C(=O)O [LPAP] (Biotin-AWDDSARAAGGQGLHVTAL-OH; C-terminus assumed) | 1 (A450 nm 0-1) | – | – | 1 (A450 nm 0-1) | – | –
PYSELNYETSHYPASPDSWV (Biotin-PYSELNYETSHYPASPDSWV) [catenin - delta 2] | 3 (A450 nm 2-3) | – | 5 (A450 nm of 4 more than 2× repeated) | 3 (A450 nm 2-3) | – | –
CC(C)C[C@H](NC(=O)[C@H](CC(C)C)NC(=O)[C@@H](NC(=O)[C@H](CC(=O)O)NC(=O)CCCC[C@@H]1SC[C@@H]2NC(=O)N[C@@H]21)[C@@H](C)O)C(=O)N[C@@H](CC(C)C)C(=O)N[C@H](C(=O)N[C@@H](CCC(=O)O)C(=O)N[C@@H](CC(N)=O)C(=O)N[C@@H](CCC(=O)O)C(=O)NCC(=O)N[C@@H](CC(=O)O)C(=O)N[C@@H](CCCCN)C(=O)N[C@H](C(=O)N[C@@H](CCC(=O)O)C(=O)N[C@@H](CCC(=O)O)C(=O)N[C@@H](CCC(N)=O)C(=O)N[C@H](C(=O)N[C@@H](CO)C(=O)N[C@@H](Cc1ccc(O)cc1)C(=O)N[C@H](C(=O)O)C(C)C)C(C)C)[C@@H](C)O)[C@@H](C)O [5H2B_HUMAN] (Biotin-DTLLLTENEGDKTEEQVSYV-OH; C-terminus assumed) | 2 (A450 nm 1-2) | – | 1 (A450 nm 0-1) | 1 (A450 nm 0-1) | – | –
CC[C@H](C)[C@H](NC(=O)[C@H](CCC(N)=O)NC(=O)CCCC[C@@H]1SC[C@@H]2NC(=O)N[C@@H]21)C(=O)N[C@@H](CO)C(=O)N1CCC[C@H]1C(=O)NCC(=O)NCC(=O)N[C@@H](CC(C)C)C(=O)N[C@@H](CCC(=O)O)C(=O)N1CCC[C@H]1C(=O)N1CCC[C@H]1C(=O)N[C@@H](CO)C(=O)N[C@@H](CCC(=O)O)C(=O)N[C@@H](CCCCN)C(=O)N[C@@H](Cc1c[nH]cn1)C(=O)N[C@@H](Cc1ccccc1)C(=O)N[C@@H](CCCNC(=N)N)C(=O)N[C@@H](CCC(=O)O)C(=O)N[C@H](C(=O)N[C@@H](CCC(=O)O)C(=O)N[C@H](C(=O)O)C(C)C)[C@@H](C)O [Tax] | 1 (A450 nm 0-1) | – | – | – | – | 5 (A450 nm of 4 more than 2× repeated)

Further lines, with some results ahead:

Classification [1] | Classification ([2]; PDZ MUPP-1, PDZ Domain 11) | Classification ([3]; PDZ Mint 1, PDZ Domain 1, 2) | Classification ([3]; PDZ Mint 1, PDZ Domain 2) | Compound | Classification ([2]; PDZ MUPP-1, PDZ Domain 10) | Classification ([2]; PDZ MUPP-1, PDZ Domain 13)
1 (A450 nm 0-1) | 1 (A450 nm 0-1) | – | – | GPVPGEPAKPKTSAHHATFV (Biotin-GPVPGEPAKPKTSAHHATFV) | – | –
1 (A450 nm 0-1) | – | – | – | CC[C@H](C)[C@H](NC(=O)[C@H](CCC(=O)O)NC(=O)[C@H](CC(N)=O)NC(=O)[C@H](CCCNC(=N)N)NC(=O)[C@H](Cc1ccccc1)NC(=O)[C@H](CC(N)=O)NC(=O)[C@H](CO)NC(=O)[C@H](CC(N)=O)NC(=O)[C@H](CCC(=O)O)NC(=O)[C@H](CO)NC(=O)[C@H](CC(=O)O)NC(=O)[C@H](CO)NC(=O)[C@@H](NC(=O)[C@@H](NC(=O)[C@H](CC(=O)O)NC(=O)[C@H](CCCCN)NC(=O)CCCC[C@@H]1SC[C@@H]2NC(=O)N[C@@H]21)[C@@H](C)CC)[C@@H](C)O)C(=O)N[C@@H](CCC(N)=O)C(=O)N[C@@H](CO)C(=O)N[C@@H](CC(C)C)C(=O)N[C@H](C(=O)O)C(C)C [CD95] (Biotin-KDITSDSENSNFRNEIQSLV-OH; C-terminus assumed) | – | –
5 (A450 nm of 4 more than 2× repeated) | – | – | – | CC(C)C[C@H](NC(=O)[C@H](Cc1c[nH]c2ccccc12)NC(=O)[C@H](Cc1c[nH]cn1)NC(=O)[C@H](CCCNC(=N)N)NC(=O)[C@H](CC(C)C)NC(=O)[C@@H](NC(=O)[C@H](Cc1ccccc1)NC(=O)[C@H](CCC(N)=O)NC(=O)[C@H](CCCNC(=N)N)NC(=O)[C@@H](NC(=O)[C@H](CCC(=O)O)NC(=O)CNC(=O)[C@H](CCCNC(=N)N)NC(=O)[C@H](CC(=O)O)NC(=O)[C@@H](NC(=O)[C@H](CC(C)C)NC(=O)[C@H](CCC(=O)O)NC(=O)[C@H](CCCNC(=N)N)NC(=O)CCCC[C@@H]1SC[C@@H]2NC(=O)N[C@@H]21)C(C)C)C(C)C)[C@@H](C)O)C(=O)N[C@@H](CCCCN)C(=O)N[C@H](C(=O)O)C(C)C [Dopamine transporter (Na+-dependent)] (Biotin-RELVDRGEVRQFTLRHWLKV-OH; C-terminus assumed) | – | –
1 (A450 nm 0-1) | – | 1 (A450 nm 0-1) | 2 (A450 nm 1-2) | ALVLIAFCIIRRRPSAYQAL (Biotin-ALVLIAFCIIRRRPSAYQAL) [CD68] | – | –
1 (A450 nm 0-1) | – | – | – | LASKSAEEGKQIPDSLSTDL (Biotin-LASKSAEEGKQIPDSLSTDL) [Dock2] | – | –
